Results on one compound are retold here after PMC10145360, “Antiplatelet Aggregation Properties of Cirsilineol: A Novel Inhibitor of Blood Coagulation Factor Xa” (Pharmaceuticals, 2023).

Marks after values point to notes of the source that are not given here.

For experiment [1], the system named is platelet-poor plasma (PPP). In words: In vitro aPTT clotting time in platelet-poor plasma. Also on record: species or system human. As to conditions: PPP incubated 15 min. The procedure:
(§1) Figure 2 Effects of CSL on clotting time. (A) Platelet-poor plasma (PPP) was incubated with the indicated concentrations of CSL or rivaroxaban (Riva) for 15 min. (B) One hour after administering DMSO, CSL, or Riva, blood was collected from the mice, and PPP was obtained. Then, in vitro aPTT (A) or ex vivo aPTT was measured, as described in the Methods sections. Data are shown as mean values ± SD of five independent experiments. * p < 0.05 vs. D. D = 0.2% DMSO, used as the vehicle control.
(§2) Ten fasting healthy volunteers (aged 24–28; six women and four men) who were free of allergies, cardiovascular problems, carbohydrate, or lipid metabolic abnormalities and had not taken any morning medication had their blood samples taken. None of our subjects used addictive drugs or antioxidant food supplements, and their diets were well balanced. The plasma from the blood samples was immediately spun down (1300× g for 15 min) to separate it from sodium citrate (10.9 mM) and pooled for the following investigations. Next, human blood samples were spun down at room temperature to rapidly separate the PRP. The PRP concentration was adjusted to 1 × 10^9 platelets/mL using a hemocytometer. After being rinsed once in HEPES buffer containing 1 mM CaCl2, the PRP pellet was maintained at room temperature for an additional 30 min. Then, 10 mL of the platelet samples were utilized to measure each clotting time point. The IRB of Kyungpook National University Hospital (Daegu, Republic of Korea) approved this study protocol (KNUH 2012-01-010).
Plasma was taken by centrifuging blood (2000× g for 10 min) at room temperature following dimethyl sulfoxide (DMSO) or CSL administration for 1 h to assess PT and aPTT using a thrombotimer (Behnk Elektronik, Norderstedt, Germany). Micronized silica was utilized as an activator for the aPTT test. Briefly, 100 μL of platelet-poor plasma (PPP) and 100 μL of aPTT assay reagent were combined for 1 min at 37 °C, 100 µL of CaCl2 (20 mM) was added, and the clotting times were noted. […] Next, the clotting time was measured.

Experiment [2] has as its system human platelet-rich plasma (PRP). Briefly: In vitro agonist-induced platelet aggregation (aggregometer). The experiment is classed as cell-based. The protocol:
Figure 3 Effects of CSL on agonist-induced platelet aggregation. Platelet-rich plasma (PRP) was preincubated for 5 min with different concentrations of CSL, Riva, or the vehicle. […] Data are shown as mean values ± SD of five independent experiments. * p < 0.05 vs. D. D = 0.2% DMSO, used as the vehicle control.
as §2
CSL dissolved in DMSO was incubated with human PRP for a specified time (1, 3, 5, or 10 min). […]

In experiment [3] the test system is platelets. As to conditions: cited from earlier work.
Experiment [4] concerns collagen and epinephrine-induced pulmonary thrombosis. Briefly: Acute pulmonary thrombosis induced by collagen and epinephrine. It counts as in vivo, mouse. As to conditions: for Mortality %: then collagen + epinephrine, mice; for Scored thrombus formation (Thrombi), lung: graded as thrombi per 25 mm^2 lung field. The protocol:
Mice were separated into several groups after being fasted overnight (10 animals each). CSL was dissolved in DMSO and given intravenously to each mouse. After 1 h, the animals received an injection of collagen and epinephrine mixture (500 μg/kg each) to induce acute thrombosis. Each mouse was closely observed for 15 min to see if it had recovered from the acute thrombosis challenge, had been paralyzed, or had passed away. H&E-stained lung tissue slices from five mice were randomly selected for the histologic investigation to determine the extent of pulmonary thrombus development. The number of arteries greater than 20 μm in diameter with any detectable thrombus was counted in each of the five view fields randomly selected from the left lobe in each section (one section per mouse). Twenty-five fields for each group were compared as a result. A total of 60–80 vessels in each segment were imaged using the system (Leica, Germany). The results were graded as the number of thrombi per 25 mm^2 lung field as previously described.

Experiment [5] concerns FeCl3-induced carotid artery thrombosis. Briefly: FeCl3-induced carotid artery thrombosis model. It counts as in vivo, mouse. The conditions noted are these: mice. The procedure:
A mouse model of FeCl3-induced thrombosis was created and used. Male C57BL/6 mice were starved for the entire night before receiving intravenous injections of the relevant drug in 0.2 mL of DMSO and were allowed to sleep. The carotid artery of the animal was exposed. The adventitial surface was covered with a cotton thread (200 μm in diameter) soaked in FeCl3 solution (0.25 M) for 5 min. The wound was flushed with saline solution once the thread had been removed. […] We measured the size and rate of thrombus formation, and we graded our results as follows: no thrombus or small thrombus (75–50 μm), medium thrombus (150–100 μm), massive thrombus (300–200 μm), and more than three thrombi. It was also noted how long it took for an extensive thrombus to obstruct the carotid artery following endothelial damage caused by FeCl3.

The test system of experiment [6] is platelet-poor plasma (PPP). In words: Ex vivo aPTT clotting time after intravenous injection. As to conditions: mice, intravenous. It counts as in vivo, mouse. The protocol:
(§3) First, the potential cytotoxicity of […] on HUVECs was assessed using the 3-(4,5-dimethylthiazol-2-yl)-2,5-diphenyltetrazolium bromide (MTT) assay. […] The activated partial thromboplastin time (aPTT) and prothrombin time (PT), two coagulation parameters altered by CSL in vitro, were assessed first. We used the direct FXa inhibitor rivaroxaban as a positive control for our experiments. […] In the aPTT experiments, rivaroxaban at 8.38 μM and CSL at 7.23 μM, respectively, doubled the clotting time. Each mouse group (n = 5) received intravenous injections of CSL for 4 consecutive days to validate the in vitro results in an ex vivo experiment. […] In the ex vivo aPTT assays, treatment with CSL at 0.25 mg/kg and rivaroxaban at 0.29 mg/kg, respectively, doubled the clotting time. The average blood volume was determined to be 2 mL based on an estimated circulating blood volume for mice of 72 mL/kg and an average weight of 27 g for each animal used in this investigation. As a result, the estimated concentration of CSL in the peripheral blood after each injection ([…]) was 2.5, 5, 10, or 20 μM, respectively.
as §1
Male C57BL/6 mice aged 7 weeks (mean weight: 27 g) were purchased from Orient Bio Co., in Sungnam, Republic of Korea, and were subjected to a 12-day acclimatization phase. […]
(§4) Plasma was taken by centrifuging blood (2000× g for 10 min) at room temperature following dimethyl sulfoxide (DMSO) or CSL administration for 1 h to assess PT and aPTT using a thrombotimer (Behnk Elektronik, Norderstedt, Germany). […] Next, the clotting time was measured.

Experiment [7] concerns platelet-poor plasma (PPP). In words: Prothrombin time (PT) after administration to mice. As to conditions: administered to mice; data not shown. The experiment is classed as in vivo, mouse. The procedure:
as §3, §4

In the case of `O=C(NC[C@H]1CN(c2ccc(N3CCOCC3=O)cc2)C(=O)O1)c1ccc(Cl)s1` [Rivaroxaban, rivaroxaban, reference compound], the “concentration that doubled the clotting time (in vitro aPTT)” value in experiment [1] was 8.38 µM. Further, the “platelet aggregation induced by ADP” value in experiment [2] (ADP 10 μM) is “did not affect”. For the same compound, the “platelet aggregation induced by U46619” value in experiment [2] (U46619 6 μM) is reported as “did not affect”. In experiment [2] (collagen 1 μg/mL), the “platelet aggregation induced by collagen” value is recorded as “did not affect”. In addition, in experiment [2] (thrombin 3 U/mL), the “platelet aggregation induced by thrombin” value is on record as “did not affect”. Moreover, the platelet aggregation entry in experiment [3] (blood taken from patients on rivaroxaban treatment) is listed as “decreased platelet aggregation”. Also, the “platelet aggregation brought on by collagen, ADP, thromboxane A2, or thrombin” value in experiment [3] (previous studies) is reported as “not to affect”. Also, the Mortality % in experiment [4] (0.13 mg/kg intravenous) is reported as 85 ^# %; in experiment [4] (0.26 mg/kg intravenous) it was 75 ^# %; in experiment [4] (0.51 mg/kg intravenous), 55 ^# %. Further, the “Scored thrombus formation (Thrombi), lung” value is given as 3.1 ± 0.1 in experiment [4] (0.13 mg/kg intravenous), 2.6 ± 0.1 in experiment [4] (0.26 mg/kg intravenous) and 1.9 ± 0.2 in experiment [4] (0.51 mg/kg intravenous). Also, the Scored thrombus formation in experiment [5] (0.13 mg/kg intravenous) was 3.5 ± 0.1; in experiment [5] (0.26 mg/kg intravenous), 3.1 ± 0.3; in experiment [5] (0.51 mg/kg intravenous) it was 2.3 ± 0.1. In addition, the results for the “Time to Large Thrombus Formation” value in experiment [5] (0.13 mg/kg intravenous), in experiment [5] (0.26 mg/kg intravenous) and in experiment [5] (0.51 mg/kg intravenous) were 15.3 ± 1.1 min, 21.8 ± 1.9 min and 44.3 ± 3.1 min, respectively. Also, in experiment [6], the “dose that doubled the clotting time (ex vivo aPTT)” value worked out at 0.29 mg/kg. For the same compound, the PT entry in experiment [7] is “did not change”.
